From US20100022526A1, “PYRIDAZINE DERIVATIVES, PROCESSES FOR THEIR PREPARATION AND THEIR USE AS FUNGICIDES” (SYNGENTA CROP PROTECTION, INC., priority 2007, published 2010)

Tests used:
Alternaria solani = experiment: Alternaria solani/tomato/Preventive (Action against Alternaria on Tomato); assay type: in vivo; conditions: preventive spray, tomato plants cv. Roter Gnom, inoculated two days after application, assessed after 4 days, untreated controls infected over 80%, read-out: inhibit fungal infestation
Method: (§1) Alternaria solani/tomato/Preventive (Action against Alternaria on Tomato) 4 weeks old tomato plants cv. Roter Gnom are treated with the formulated test compound in a spray chamber. Two days after application tomato plants are inoculated by spraying a spore suspension on the test plants. After an incubation period of 4 days at 22° C./18° C. and 95% r. h. in a greenhouse the disease incidence is assessed.

Septoria tritici = experiment: Sentoria tritici/wheat/Preventive (Action against Septoria Leaf Spot on Wheat); assay type: in vivo; conditions: Zymoseptoria tritici, preventive spray, wheat plants cv. Riband, inoculated one day after application, assessed 16-18 days after inoculation, untreated controls infected over 80%, read-out: inhibits fungal infestation
Method: Sentoria tritici/wheat/Preventive (Action against Septoria Leaf Spot on Wheat) 2 weeks old wheat plants cv. Riband are treated with the formulated test compound in a spray chamber. One day after application wheat plants are inoculated by spraying a spore suspension (10^6 conidia/ml) on the test plants. After an incubation period of 1 day at 22° C./21° C. and 95% r. h. plants are kept at 22° C./21° C. and 70% r.h. in a greenhouse. The disease incidence is assessed 16-18 days after inoculation.

Botrytis cinerea = experiment: Botrytis cinerea/tomato/preventive (Action against Botrytis on Tomato); assay type: in vivo; conditions: preventive spray, tomato plants cv. Roter Gnom, inoculated two days after application, assessed after 3 days, untreated controls infected over 80%, read-out: inhibit fungal infestation
Method: as §1, with “Botrytis cinerea/tomato/preventive (Action” for “Alternaria solani/tomato/Preventive (Action”, “against Botrytis” for “against Alternaria”, “of 3” for “of 4”, “at 20°” for “at 22° C./18°”

[1] = system: Magnaporthe grisea (Pyricularia oryzae); experiment: whole plant or invertebrate; assay type: in vivo; conditions: read-out: inhibit fungal infestation
[2] = system: Pyrenophora teres (Helminthosporium teres); experiment: Pyrenophora teres (Helminthosporium teres)/barley/preventive (Action against Net Blotch on Barley); assay type: in vivo; conditions: preventive spray, barley plants cv. Regina, inoculated two days after application, assessed after 4 days, untreated controls infected over 80%, read-out: inhibit fungal infestation
Method: Pyrenophora teres (Helminthosporium teres)/barley/preventive (Action against Net Blotch on Barley) 1-week-old barley plants cv. Regina are treated with the formulated test compound in a spray chamber. Two days after application barley plants are inoculated by spraying a spore suspension (2.6×10^4 conidia/ml) on the test plants. After an incubation period of 4 days at 20° C. and 95% r. h. the disease incidence is assessed.

Uncinula necator = experiment: Uncinula necator/grape/preventive (Action against Powdery Mildew on Grape); assay type: in vivo; conditions: Erysiphe necator, preventive spray, grape seedlings cv. Gutedel, inoculated one day after application, assessed after 7 days, untreated controls infected over 80%, read-out: inhibit fungal infestation
Method: Uncinula necator/grape/preventive (Action against Powdery Mildew on Grape) 5 weeks old grape seedlings cv. Gutedel are treated with the formulated test compound in a spray chamber. One day after application grape plants are inoculated by shaking plants infected with grape powdery mildew above the test plants. After an incubation period of 7 days at 24° C./22° C. and 70% r. h. under a light regime of 14/10 h (light/dark) the disease incidence is assessed.

Puccinia recondita = experiment: Puccinia recondita/wheat/preventive (Action against Brown Rust on Wheat); assay type: in vivo; conditions: preventive spray, wheat plants cv. Arina, inoculated one day after application, assessed 11 days after inoculation, untreated controls infected over 80%, read-out: inhibits fungal infestation
Method: Puccinia recondita/wheat/preventive (Action against Brown Rust on Wheat) 1 week old wheat plants cv. Arina are treated with the formulated test compound in a spray chamber. One day after application wheat plants are inoculated by spraying a spore suspension (1×105 uredospores/ml) on the test plants. After an incubation period of 1 day at 20° C. and 95% r. h. plants are kept for 10 days 20° C./18° C. (day/night) and 60% r.h. in a greenhouse. The disease incidence is assessed 11 days after inoculation.

With `COc1nnc(Cl)c(-c2c(F)cc(F)cc2F)c1-c1ccc(Br)cc1` [I.l. 199, 4-(4-bromophenyl)-6-chloro-3-methoxy-5-(2,4,6-trifluorophenyl)-pyridazine] the inhibition at 200 ppm (Alternaria solani) was no less than 80%, the inhibition at 200 ppm (Septoria tritici) was no less than 80% and the inhibition at 200 ppm (Botrytis cinerea) was no less than 80%. The inhibition at 200 ppm [1] was no less than 80%, the inhibition at 200 ppm [2] was no less than 80% and the inhibition at 200 ppm (Uncinula necator) was no less than 80%. For the same molecule, the melting point was 113 to 119 °C and the inhibition at 200 ppm (Puccinia recondita) was no less than 80%.
